Assay results taken from patent publication US6297230A, “Cyanoaziridines for treating cancer” (priority 2000, dated 2001).
≈ marks a conversion by molar mass, not a printed value. Entries after “also recorded” stand apart in the source; their conditions may differ.

Columns and labels:
[1] = test system: A-375 malignant melanoma cells; assay: In vitro antitumor activity, A-375 melanoma; type: cell-based, human; conditions: Homo sapiens, read-out: IC50
Description: 1) in vitro tumor cell viability assays using MTT and SRB dye reaction endpoints.
Sulforhodamine B (SRB) Assay for Adherent Tumor Cells
Sulforhodamine B (SRB) is a protein binding aminoxanthene dye with two sulfonic acid groups. (Lillie, R. D., H. J. Conn's Biological Stains, 9th Ed., Baltimore; Williams & Wilkins, 1977.) It quantitates whole cell protein content by the intensity of dye staining and relates this to the number of viable cells. […] The SRB assay is used for cells which normally adhere to surfaces (in this case plastic culture flasks or petri dishes) as part of their requirement for growth and division in vitro. The SRB assay is currently used by the National Cancer Institute in the anticancer drug screening program. (Skehan, et al., J Natl Cancer Inst 82:1107-1112, 1990; Rubinstein, et al., J Natl Cancer Inst 82:1113-1118, 1990.) Methodologic comparisons have shown that SRB results are linear for the number of tumor cells over a 100-fold range, and for protein content determined by a modified Lowry method or Standard Bradford (Bradford, M., Anal Biochem 72:248-254, 1976) methods. […] (Lillie, R. D., H. J. Conn's Biological Stains, 9th Ed., Baltimore; Williams & Wilkins, 1977.)
Cell cultures of 10^3 -10^7 cells growing in 96-well plastic microtiter plates are fixed with 50% trichloroacetic acid (TCA) for 30 minutes at 4° C. The cells are then stained with 0.4% (w/v) sulforhodamine B (SRB) dissolved in 1% acetic acid. Unbound dye is removed by 4 washes with 1% acetic acid, and protein-bound dye is extracted with 10 mM unbuffered Tris® base [tris(hydroxymethyl)aminomethane]. The optical density (OD) of this extracted solution is measured at […] in a microtiter plate ultraviolet absorbance detector. Cell viability is expressed as percent of control by dividing the optical densities and multiplying the result by 100.
(§1) Microculture Tetrazolium (MTT) Assay for Tumor Cells
(§2) Tumors are disaggregated into single cell suspensions using mechanical, hypoosmotic, and/or enzymatic (trypsin) methods. The cells are plated at a concentration of 3-5×10^4 per […] well into plastic 96-well plates. Growth medium containing 5-10% (vol/vol) heat-inactivated fetal bovine serum and penicillin/streptomycin (both […]) are added prior to incubation at 37° C. for 6 days. Afterwards the medium containing the drug is removed, the cells are centrifuged in fresh medium or phosphate-buffered saline (pH 7.4). A tetrazolium dye, […]-2,5-diphenyl tetrazolium (MTT), is then added. (Mossman, T., J Immunol 65:55-63, 1983.) This dye forms a colored formazan product upon activation by mitochondrial reductases in viable cells. Typically, the formazan product is solubilized in acid-propanol or DMSO. The intensity of the color is proportional to viable cell numbers and this is quantitated by spectrophotometric absorbance at 570 nm on a micro ELISA plate reader. The results are calibrated in % control absorbance from untreated tumor cells. (Alley, et al., Cancer Res 48:589-601, 1988.)
Table 3 gives the potencies of the new aziridine-1-carboxamides in a panel of human and murine tumor cells in culture. The tumor cell lines in this table are selected to represent a range of histological and growth phenotypes. Their characteristics are described below.
4.0 The Human A-375 Malignant Melanoma Cell Line was also developed by Girard, et al. (Girard, et al., J Natl Cancer Inst 51(5):1417-1423, 1973) from a human with advanced melanoma. The modal chromosome number is 67 and it has a low plating (colony forming) efficiency of 0.7% when grown on agar. These cells also form rapidly growing tumors when injected subcutaneously into immunodeficient athymic (nu/nu) mice. (Girard, et al., J Natl Cancer Inst 51(5):1417-1423, 1973.) These cells are also used in the NCI drug screening panel. (Skehan, et al., J Natl Cancer Inst 82:1107-1112, 1990.)

8226/S myeloma cells = assay: MTT growth inhibition, parental 8226 myeloma cells; type: cell-based, human; conditions: for IC50: Homo sapiens, Table 5, Sensitive (parental) 8226, read-out: IC50; for Potency relative to imexon: myeloma cells
Experimental: as §1, §2
(§3) The following unpublished studies were performed in vitro to develop and characterize a human myeloma cell line with resistance to imexon-induced cytotoxicity. The original (parental) 8226 cell line was developed by Matsuoka, et al. (Matsuoka, et al., Proc Soc Exp Biol Med 125:1246-1250, 1967). It is a lymphoblastoid cell line which stains for lambda light immunoglobulin production. It grows in vitro in suspension culture (non-adherent) and forms tumors when injected into SCID mice. (Skehan, et al., J Natl Cancer Inst 82:1107-1112, 1990.)
(§4) One exciting feature of our novel compounds is, that they work on imexon-resistant cells. An imexon-resistant 8226 myeloma cell line was selected by continuously exposing cells to gradually increasing concentrations of imexon up to 3.25 mg/mL. This cell line has slightly longer cell doubling time than 8226 sensitive cells (24 vs 20 hours). […] The dose response curve for imexon continuous exposure was determined using MTT assay. Each data point represents the mean of three experiments performed in 8 replicates.
(§5) We compared IC50 concentrations and there is a 4-fold resistance observed for the 8226/I-R cell line when the cells were continuously exposed to imexon for […] at 37° C. The degree of resistance was relatively unstable in the absence of the drug, with the resistant cells losing substantial resistance when maintained in imexon-free medium for 20 weeks (FIG. 2).
(§6) IC50 was measured by MTT assay. IC50 refer to the concentration by drug that results in 50% growth inhibition. A minimum of 2 assays were performed for each drug following 250 mg/mL imexon is equivalent to 6.5 cGy radiation in sensitive cells.
(§7) Using the colorimetric microculture tetrazolium (MTT) assay, imexon and 25-related analogs were studied for tumor growth inhibition in vitro. Imexon-induced DNA single strand breaks were assessed by alkaline elution. Cells were exposed to imexon for 1 hour prior to start of experiment. The fraction of ^14 C-labeled DNA retained on the filter is plotted against the time of elution. The cells included parental 8226 myeloma cells and the 8226 imexon-resistant cells exposed to drug (imexon or analog) continuously for 10 days at 37° C. At the end of the exposure period, the cells were analyzed for viability using the formazan-forming tetrazolium dye (MTT) assay.

8226/I-R myeloma cells = assay: MTT growth inhibition, imexon-resistant 8226 myeloma cells; type: cell-based, human; conditions: for IC50: Homo sapiens, imexon-resistant 8226, read-out: IC50; for IC50 / Fold Resistance of IC50 R/IC50 's: Table 5; for Cross-resistance with imexon: 8226 imexon-resistant vs parental; for Fold Resistance of IC50 R/IC50 's: imexon-resistant vs sensitive 8226
Experimental: as §1, §2, §3, §4, §5, §6, §7

[2] = test system: L-1210 MDR leukemia cells; assay: MTT growth inhibition, multidrug-resistant L-1210 leukemia cells; type: cell-based, mouse; conditions: for Fold Resistance of IC50 's (MDR/S): L-1210 MDR vs sensitive, 11520 min; for IC50: Mus musculus, L1210, 192 h, MDR L-1210, drug continuously present 8 days, read-out: IC50
Experimental: as §2
In addition, the imexon analogs have also been tested in a multidrug-resistant (MDR) mouse L-1210 leukemia cell line.
L-1210 MDR Cells represent a multidrug-resistant cell line developed for resistance to the alkylating agent mitomycin C. (Dorr, et al., Biochem Pharmacol 36(19):3115-3120, 1987.) This cell line has the same general growth characteristics of the parental line, but is cross-resistant to numerous natural-product based anticancer agents. This includes anthracyclines such as doxorubicin (Adriamycin®) and vinca alkaloids such as vincristine or vinblastine.
*Drug continuously present for 8 days; IC50 measured by MTT dye

N#CC1CN1C(=O)NC1CCCCC1 (stereo not drawn) [AMP 413, 2-Cyanoaziridine-1-(N-cyclohexyl)carboxamide]
IC50 [1]: 6.7 µg/mL (≈ 34.7 µM) | IC50 (8226/S myeloma cells): 7 µg/mL (≈ 36.2 µM) | IC50 (8226/I-R myeloma cells): 19 µg/mL (≈ 98.3 µM) | Fold Resistance of IC50 's (MDR/S) [2]: 2.2 | IC50 [2]: 3.1 µg/mL (≈ 16 µM)

CCCCNC(=O)N1CC1C#N (stereo not drawn) [AMP 414, 2-Cyanoaziridine-1-(N-butyl)carboxamide]
IC50 [1]: 2.5 µg/mL (≈ 15 µM) | IC50 (8226/S myeloma cells): 2.8 µg/mL (≈ 16.7 µM) | Cross-resistance with imexon (8226/I-R myeloma cells): lack of significant (>50% IC50 change) cross-resistance with imexon | IC50 (8226/I-R myeloma cells): 2.8 µg/mL (≈ 16.7 µM) | Fold Resistance of IC50 R/IC50 's (8226/I-R myeloma cells): 1.0 | Fold Resistance of IC50 's (MDR/S) [2]: 1.0 | IC50 [2]: 2 µg/mL (≈ 12 µM)

N#CC1CN1C(=O)Nc1ccc(F)cc1 (stereo not drawn) [AMP 415, 2-Cyanoaziridine-1-[N-(4-fluorophenyl)]carboxamide]
IC50 [1]: 0.7 µg/mL (≈ 3.41 µM) | IC50 (8226/S myeloma cells): 1 µg/mL (≈ 4.87 µM) | Enhanced potency: decrease in IC50 against myeloma cell growth (8226/S myeloma cells; compared with imexon): > 40% | Potency relative to imexon (8226/S myeloma cells): roughly equal potency to imexon | Cross-resistance with imexon (8226/I-R myeloma cells): lack of significant (>50% IC50 change) cross-resistance with imexon; also recorded: no significant cross resistance | IC50 (8226/I-R myeloma cells): 1.2 µg/mL (≈ 5.85 µM) | Fold Resistance of IC50 R/IC50 's (8226/I-R myeloma cells): 1.2 | Fold Resistance of IC50 's (MDR/S) [2]: 0.8 | IC50 [2]: 1.2 µg/mL (≈ 5.85 µM)

N#CC1CN1C(=O)Nc1ccc(C(F)(F)F)cc1 (stereo not drawn) [AMP 416, 2-Cyanoaziridine-1-[N-(4-trifluorophenyl)]carboxamide]
IC50 [1]: 3 µg/mL (≈ 11.8 µM) | IC50 (8226/S myeloma cells): 2.1 µg/mL (≈ 8.23 µM) | Potency relative to imexon (8226/S myeloma cells): roughly equal potency to imexon | Cross-resistance with imexon (8226/I-R myeloma cells): lack of significant (>50% IC50 change) cross-resistance with imexon; also recorded: no significant cross resistance | IC50 (8226/I-R myeloma cells): 2 µg/mL (≈ 7.84 µM) | Fold Resistance of IC50 R/IC50 's (8226/I-R myeloma cells): 0.95 | Fold Resistance of IC50 's (MDR/S) [2]: 0.9 | IC50 [2]: 1.8 µg/mL (≈ 7.05 µM)

N#CC1CN1C(=O)Nc1ccc([N+](=O)[O-])cc1 (stereo not drawn) [AMP 417, 2-Cyanoaziridine-1-[N-(4-nitrophenyl)]carboxamide]
IC50 [1]: 0.9 µg/mL (≈ 3.88 µM) | IC50 (8226/S myeloma cells): 2.1 µg/mL (≈ 9.04 µM) | Potency relative to imexon (8226/S myeloma cells): roughly equal potency to imexon | Cross-resistance with imexon (8226/I-R myeloma cells): lack of significant (>50% IC50 change) cross-resistance with imexon; also recorded: no significant cross resistance | IC50 (8226/I-R myeloma cells): 2 µg/mL (≈ 8.61 µM) | Fold Resistance of IC50 R/IC50 's (8226/I-R myeloma cells): 0.95 | Fold Resistance of IC50 's (MDR/S) [2]: 1.0 | IC50 [2]: 0.6 µg/mL (≈ 2.58 µM)

CCOC(=O)c1ccc(NC(=O)N2CC2C#N)cc1 (stereo not drawn) [AMP 419, 2-Cyanoaziridine-1-[N-(4-ethoxycarbonylphenyl)]carboxamide]
IC50 [1]: 2 µg/mL (≈ 7.71 µM) | Cross-resistance with imexon (8226/I-R myeloma cells): lack of significant (>50% IC50 change) cross-resistance with imexon | Fold Resistance of IC50 's (MDR/S) [2]: 1.2 | IC50 [2]: 3 µg/mL (≈ 11.6 µM)

CCOC(=O)CNC(=O)N1CC1C#N (stereo not drawn) [AMP 420, 2-Cyanoaziridine-1-[N-(ethoxycarbonyl)methyl]carboxamide]
IC50 [1]: 10 µg/mL (≈ 50.7 µM) | IC50 (8226/S myeloma cells): 5 µg/mL (≈ 25.4 µM) | Cross-resistance with imexon (8226/I-R myeloma cells): lack of significant (>50% IC50 change) cross-resistance with imexon | IC50 (8226/I-R myeloma cells): 6 µg/mL (≈ 30.4 µM) | Fold Resistance of IC50 R/IC50 's (8226/I-R myeloma cells): 1.2 | Fold Resistance of IC50 's (MDR/S) [2]: 1.0 | IC50 [2]: 2.5 µg/mL (≈ 12.7 µM)
